Results: DBAASP
Converted amounts (≈) assume the structure as drawn. “And” between values parts separate entries of the source, which are not always exact repeats. Equal values may be shown once. Each block holds one compound with its values, some of them ahead of it.

Columns and labels:
Assay in all cases: ≥ marks a high value that may be exact or a test limit, other limits are often not marked, values filed in µg/mL are converted to µM
[1] = test system: Escherichia coli DH5alpha
[2] = test system: Escherichia coli K12 MG1655
[3] = test system: Micrococcus luteus A270
[4] = test system: Pseudomonas aeruginosa ATCC 27853
[5] = test system: Pseudomonas aeruginosa PA14
[6] = test system: Staphylococcus aureus ATCC 29213
[7] = test system: Legionella pneumophila Lens
[8] = test system: Acinetobacter baumannii Josh 230
[9] = test system: Acinetobacter baumannii Josh 28
[10] = test system: Enterobacter asburiae St. L P23
[11] = test system: Enterobacter cloacae BB2012-181
[12] = test system: Enterobacter cloacae BB2013-32
[13] = test system: Enterobacter cloacae St. L P23
[14] = test system: Escherichia coli ARLG-1012
[15] = test system: Escherichia coli ATCC 25922
[16] = test system: Escherichia coli BB2013-30
[17] = test system: Escherichia coli BW25113
[18] = test system: Escherichia coli JW55034
[19] = test system: Klebsiella aerogenes St. L P63
[20] = test system: Klebsiella pneumoniae BB2009-209
[21] = test system: Klebsiella pneumoniae J3702
[22] = test system: Klebsiella pneumoniae Oschner KP-1
[23] = test system: Pseudomonas aeruginosa BB2013-100
[24] = test system: Pseudomonas aeruginosa J4228
[25] = test system: Escherichia coli K88
[26] = test system: Escherichia coli O157:H7 CICC 21530
[27] = test system: Lacticaseibacillus rhamnosus 1.0911
[28] = test system: Lacticaseibacillus rhamnosus 1.0936
[29] = test system: Lacticaseibacillus rhamnosus 1.9021
[30] = test system: Lacticaseibacillus rhamnosus 8014
[31] = test system: Pseudomonas aeruginosa PAO1
[32] = test system: Salmonella enterica subsp. enterica serovar Choleraesuis CVCC 503
[33] = test system: Salmonella enterica subsp. enterica serovar Pullorum C79-13
[34] = test system: Salmonella enterica subsp. enterica serovar Typhimurium ATCC 14028
[35] = test system: Staphylococcus aureus ATCC 43300
[36] = test system: Staphylococcus epidermidis ATCC 12228
[37] = test system: Streptococcus agalactiae BNCC 185941

MIC [1]: 3.9 µM (≈ 5.61 µg/mL)
MIC [2]: 7.8 µM (≈ 11.2 µg/mL)
MIC [3]: 1.9 µM (≈ 2.74 µg/mL)
MIC [4]: 7.8 µM (≈ 11.2 µg/mL)
MIC [5]: 15.6 µM (≈ 22.5 µg/mL)
MIC [6]: 3.9 µM (≈ 5.61 µg/mL)
SMILES: CC(C)C[C@H](NC(=O)CNC(=O)[C@@H](NC(=O)[C@H](CC(C)C)NC(=O)[C@H](C)NC(=O)[C@@H](N)C(C)C)[C@@H](C)O)C(=O)N[C@H](C(=O)N[C@H](C(=O)N[C@@H](C)C(=O)N[C@@H](CCC(=O)O)C(=O)N[C@@H](Cc1ccc(O)cc1)C(=O)N[C@@H](Cc1ccccc1)C(=O)N[C@@H](CCCN=C(N)N)C(=O)O)C(C)C)[C@@H](C)O [VALTGLTVAEYFR]

MIC [7]: 2.44 µM (≈ 6.2 µg/mL)
SMILES: CC[C@H](C)[C@H](NC(=O)[C@H](CC(C)C)NC(=O)CNC(=O)[C@H](CCCCN)NC(=O)[C@@H](NC(=O)[C@@H](NC(=O)[C@H](CCC(=O)O)NC(=O)[C@H](Cc1ccccc1)NC(=O)[C@H](Cc1ccccc1)NC(=O)[C@H](CCCCN)NC(=O)[C@H](C)NC(=O)[C@@H](NC(=O)[C@@H](NC(=O)[C@H](CC(=O)O)NC(=O)[C@H](C)NC(=O)[C@@H](N)CCSC)C(C)C)[C@@H](C)CC)[C@@H](C)CC)C(C)C)C(=O)N[C@@H](CC(=O)O)C(=O)N[C@@H](CCC(N)=O)C(=O)N[C@@H](Cc1ccccc1)C(=O)N[C@H](C(=O)N[C@@H](CCC(N)=O)C(=O)N[C@@H](CCCCN)C(=O)O)[C@@H](C)O [MADVIAKFFEIVKGLIDQFTQK]

MIC [8]: 9.92 µM (≈ 16 µg/mL)
MIC [9]: 2.48 µM (≈ 4 µg/mL)
MIC [10]: 19.8 µM (≈ 32 µg/mL)
MIC [11]: 19.8 µM (≈ 32 µg/mL)
MIC [12]: 19.8 µM (≈ 32 µg/mL)
MIC [13]: 19.8 µM (≈ 32 µg/mL)
MIC [14]: 4.96 µM (≈ 8 µg/mL)
MIC [15]: 2.74 µM and 5.48 µM
MIC [16]: 9.92 µM (≈ 16 µg/mL)
MIC [17]: 4.96 µM (≈ 8 µg/mL)
MIC [18]: 4.96 µM (≈ 8 µg/mL)
MIC [19]: 19.8 µM (≈ 32 µg/mL)
MIC [20]: 19.8 µM (≈ 32 µg/mL)
MIC [21]: 19.8 µM (≈ 32 µg/mL)
MIC [22]: 19.8 µM (≈ 32 µg/mL)
MIC [4]: 2.48 µM (≈ 4 µg/mL)
MIC [23]: 19.8 µM (≈ 32 µg/mL)
MIC [24]: 4.96 µM (≈ 8 µg/mL)
SMILES: CC[C@H](C)[C@H](NC(=O)CN)C(=O)N[C@@H](CCCCN)C(=O)N[C@H](C(=O)N[C@@H](CCCN=C(N)N)C(=O)N[C@@H](CCCCN)C(=O)N[C@@H](CC(C)C)C(=O)N[C@@H](Cc1ccccc1)C(=O)N[C@@H](CCCCN)C(=O)N[C@@H](CCCCN)C(=O)N[C@@H](CC(C)C)C(=O)N[C@@H](CC(C)C)C(=O)N[C@@H](CCCN=C(N)N)C(N)=O)[C@@H](C)CC [GIKIRKLFKKLLR]

MIC [15]: 32 µM and 64 µM
MIC [25]: 16 µM (≈ 19.2 µg/mL)
MIC [26]: 16 µM (≈ 19.2 µg/mL)
MIC [27]: 16 µM (≈ 19.2 µg/mL)
MIC [28]: ≥ 128 µM
MIC [29]: ≥ 32 µM
MIC [30]: ≥ 64 µM
MIC [4]: 64 µM (≈ 76.8 µg/mL)
MIC [31]: 32 µM (≈ 38.4 µg/mL)
MIC [33]: 8 µM (≈ 9.6 µg/mL)
MIC [34]: 64 µM (≈ 76.8 µg/mL)
MIC [6]: 128 µM (≈ 154 µg/mL)
MIC [35]: 64 µM (≈ 76.8 µg/mL)
MIC [36]: 128 µM (≈ 154 µg/mL)
MIC [37]: ≥ 128 µM
SMILES: CC(C)C[C@H](NC(=O)CNC(=O)[C@H](CC(C)C)NC(=O)[C@H](CS)NC(=O)[C@H](CC(C)C)NC(=O)CNC(=O)[C@H](CC(C)C)NC(=O)[C@H](CCCCN)NC(=O)[C@@H](N)CCCCN)C(=O)N[C@@H](CCCCN)C(=O)N[C@@H](CCCCN)C(N)=O [KKLGLCLGLKK]
MIC [32]: ≥ 64 µM
